Assay results as given in ChEMBL document CHEMBL1201862, “PubChem BioAssay data set” (2004).
The source made the active and inactive calls.

Assays:
[1] = target: DNA dC->dU-editing enzyme APOBEC-3G (Homo sapiens, UniProt Q9HC16); format: functional;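 further: Dose-response counterscreen measuring inhibition of APOBEC3G DNA deaminase activity, run while confirming APOBEC3A inhibitors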
[2] = target: DNA dC->dU-editing enzyme APOBEC-3A (Homo sapiens, UniProt P31941); assay: Dose Response confirmation of small molecule APOBEC3A DNA Deaminase Inhibitors via a fluorescence-based single-stranded DNA deaminase assay. [Related pubchem assays (depositor defined):AID493011, AID493024]; format: functional
[3] = target: T1, Microphthalmia-associated transcription factor (Homo sapiens, UniProt O75030); assay: reducers of TRPM1 reporter luminescence, concentration series – cell-based, SK-MEL-5, cherry-picked, set 3, MITF inhibitor project, dose response (AID 493073); format: functional;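 further: SK-MEL-5 melanoma cells with luciferase driven by the MITF target TRPM1 promoter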
T1 sequence (O75030 whole entry): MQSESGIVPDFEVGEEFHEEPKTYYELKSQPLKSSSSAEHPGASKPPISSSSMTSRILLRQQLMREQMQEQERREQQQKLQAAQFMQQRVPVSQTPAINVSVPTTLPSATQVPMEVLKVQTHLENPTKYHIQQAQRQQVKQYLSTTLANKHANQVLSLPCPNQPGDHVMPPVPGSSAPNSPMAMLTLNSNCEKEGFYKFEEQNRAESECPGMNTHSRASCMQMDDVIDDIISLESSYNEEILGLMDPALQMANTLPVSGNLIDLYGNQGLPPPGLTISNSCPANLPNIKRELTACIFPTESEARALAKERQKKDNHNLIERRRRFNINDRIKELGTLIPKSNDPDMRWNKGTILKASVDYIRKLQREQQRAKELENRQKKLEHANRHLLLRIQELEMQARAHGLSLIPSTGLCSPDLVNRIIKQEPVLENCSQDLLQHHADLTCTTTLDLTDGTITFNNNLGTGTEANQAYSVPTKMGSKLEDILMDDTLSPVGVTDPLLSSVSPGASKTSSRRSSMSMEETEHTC

[4] = target: T2, Ubiquitin-conjugating enzyme E2 N (Homo sapiens, UniProt P61088); format: functional;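 further: Dose-response confirmation in a TR-FRET assay detecting UBC13-driven polyubiquitin chain formation, inhibition measured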
T2 sequence (P61088 whole entry): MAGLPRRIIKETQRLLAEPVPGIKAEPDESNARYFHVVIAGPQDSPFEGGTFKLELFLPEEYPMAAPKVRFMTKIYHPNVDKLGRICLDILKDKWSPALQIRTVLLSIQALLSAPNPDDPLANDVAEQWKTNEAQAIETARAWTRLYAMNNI

[5] = Counterscreen for activators of the function of SWI/SNF related, matrix associated, actin dependent regulator of chromatin, subfamily a, member 2 (SMARCA2, BRM): Luminescence-based cell-based high throughput dose response assay to identify non-selective compounds using the VP16 reporter assay.; format: functional
[6] = HepG2 cell cytotoxicity, dose response, cytotoxicity control for non-replicating M. tuberculosis project (AID 489018); format: functional; details: Mycobacterium tuberculosis
[7] = target: SWI/SNF-related matrix-associated actin-dependent regulator of chromatin subfamily A member 2 (Homo sapiens, UniProt P51531); assay: Luminescence-based cell-based high throughput dose response assay to identify activators of the function of SWI/SNF related, matrix associated, actin dependent regulator of chromatin, subfamily a, member 2 (SMARCA2, BRM).; format: functional
A-375 = assay: proliferation inhibition in MITF-low A375 cells – cell-based, cherry-pick samples, set 2, counter-screen for MITF modulator project, dose response (AID 540335); format: functional; details: Homo sapiens
cells = format: functional
[8] = cytotoxicity toward MDA-MB-231 breast cancer cells – cell-based, CellTiter-Glo luminescence, cherry-pick, cytotoxicity control for RAD54 inhibitor project, dose response (AID 651692); format: functional
[9] = THP-1 cell cytotoxicity, dose response, cytotoxicity control for non-replicating M. tuberculosis project (AID 489025); format: functional
[10] = Vero E6 cell cytotoxicity, dose response, cytotoxicity control for non-replicating M. tuberculosis project, secondary assay (AID 492998); format: functional, VeroE6; details: Vero C1008
[11] = target: T3, DNA repair and recombination protein RAD54-like (Homo sapiens, UniProt Q92698); assay: RAD54 Holliday junction migration blockers – biochemical, fluorescence, cherry-picked samples, dose series, confirmation (AID 651657); format: functional
T3 sequence (Q92698 whole entry): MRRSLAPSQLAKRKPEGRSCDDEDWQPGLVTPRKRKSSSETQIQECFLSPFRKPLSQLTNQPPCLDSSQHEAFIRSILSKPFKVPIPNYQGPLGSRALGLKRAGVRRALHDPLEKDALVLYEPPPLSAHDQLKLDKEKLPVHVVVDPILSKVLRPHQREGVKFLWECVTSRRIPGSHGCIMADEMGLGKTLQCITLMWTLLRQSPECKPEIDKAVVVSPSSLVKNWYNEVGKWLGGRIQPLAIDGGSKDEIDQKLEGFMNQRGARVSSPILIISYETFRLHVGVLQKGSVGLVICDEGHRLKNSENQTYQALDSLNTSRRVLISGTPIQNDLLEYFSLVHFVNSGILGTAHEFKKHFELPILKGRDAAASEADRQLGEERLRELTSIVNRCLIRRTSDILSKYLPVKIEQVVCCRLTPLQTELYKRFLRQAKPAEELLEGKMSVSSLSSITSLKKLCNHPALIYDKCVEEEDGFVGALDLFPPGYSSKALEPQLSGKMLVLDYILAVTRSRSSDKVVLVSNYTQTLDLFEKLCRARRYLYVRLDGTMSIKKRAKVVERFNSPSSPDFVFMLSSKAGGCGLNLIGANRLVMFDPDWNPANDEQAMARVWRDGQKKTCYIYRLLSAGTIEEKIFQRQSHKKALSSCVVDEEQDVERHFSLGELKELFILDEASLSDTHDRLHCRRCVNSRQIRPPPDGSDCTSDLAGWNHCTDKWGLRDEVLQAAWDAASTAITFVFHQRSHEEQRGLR

Fatty acid synthase [12] = target: T4, Fatty acid synthase (Homo sapiens, UniProt P49327); assay: inhibition of human FAS-TE enzyme activity – biochemical, kinetic fluorescence intensity, dose response (AID 624326); format: functional;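 further: rate of fluorescence rise from hydrolysis of a fluorogenic O-methyl fluorescein ester substrate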
Prothrombin = Prothrombin (Homo sapiens, UniProt P00734); assay: Thrombin 1536 HTS Dose Response Confirmation. [Related pubchem assays: 1046 (Thrombin 1536 HTS; hits were confirmed in this assay)]; format: functional
Fatty acid synthase [13] = target: T4, Fatty acid synthase; assay: inhibition of human FAS-TE enzyme activity – biochemical, endpoint fluorescence intensity, uHTS hits, dose response (AID 624327); format: functional;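 further: fluorescence from hydrolysis of an O-methyl fluorescein acyl ester substrate by the enzyme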
Protein RecA = target: T5, Protein RecA (Mycobacterium tuberculosis, UniProt P9WHJ3); assay: Fluorescence Cell-Free Homogeneous Dose Retest to Identify Inhibitors of RecA-Intein Splicing Activity. [Related pubchem assays (depositor defined):AID2097, AID2223, AID489010, AID492950]; format: functional
T5 sequence (P9WHJ3 whole entry): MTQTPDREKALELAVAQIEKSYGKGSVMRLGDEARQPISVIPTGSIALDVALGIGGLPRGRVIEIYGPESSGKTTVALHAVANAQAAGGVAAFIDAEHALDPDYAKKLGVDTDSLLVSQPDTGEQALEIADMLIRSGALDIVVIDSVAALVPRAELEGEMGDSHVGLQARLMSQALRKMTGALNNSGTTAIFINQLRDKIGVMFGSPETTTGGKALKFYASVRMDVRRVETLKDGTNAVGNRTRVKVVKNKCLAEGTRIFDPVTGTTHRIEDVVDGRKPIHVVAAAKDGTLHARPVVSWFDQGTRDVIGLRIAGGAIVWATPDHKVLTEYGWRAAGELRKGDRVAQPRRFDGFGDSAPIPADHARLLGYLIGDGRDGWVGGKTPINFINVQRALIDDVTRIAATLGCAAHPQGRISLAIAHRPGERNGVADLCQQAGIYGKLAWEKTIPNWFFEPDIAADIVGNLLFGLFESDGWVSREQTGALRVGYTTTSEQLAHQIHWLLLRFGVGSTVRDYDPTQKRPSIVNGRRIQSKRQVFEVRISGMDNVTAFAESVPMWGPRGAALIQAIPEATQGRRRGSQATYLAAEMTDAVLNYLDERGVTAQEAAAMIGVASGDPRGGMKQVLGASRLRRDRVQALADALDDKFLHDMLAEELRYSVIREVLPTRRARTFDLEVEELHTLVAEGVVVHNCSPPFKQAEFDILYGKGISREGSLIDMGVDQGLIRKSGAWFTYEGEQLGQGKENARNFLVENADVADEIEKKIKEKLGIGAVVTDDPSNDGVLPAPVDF

[14] = target: T6, Replicative DNA helicase DnaB (Mycobacterium tuberculosis, UniProt P9WMR3); assay: DnaB intein splicing inhibitors, dose response, biochemical, cell-free fluorescence (AID 449749); format: functional
T6 sequence (P9WMR3 whole entry): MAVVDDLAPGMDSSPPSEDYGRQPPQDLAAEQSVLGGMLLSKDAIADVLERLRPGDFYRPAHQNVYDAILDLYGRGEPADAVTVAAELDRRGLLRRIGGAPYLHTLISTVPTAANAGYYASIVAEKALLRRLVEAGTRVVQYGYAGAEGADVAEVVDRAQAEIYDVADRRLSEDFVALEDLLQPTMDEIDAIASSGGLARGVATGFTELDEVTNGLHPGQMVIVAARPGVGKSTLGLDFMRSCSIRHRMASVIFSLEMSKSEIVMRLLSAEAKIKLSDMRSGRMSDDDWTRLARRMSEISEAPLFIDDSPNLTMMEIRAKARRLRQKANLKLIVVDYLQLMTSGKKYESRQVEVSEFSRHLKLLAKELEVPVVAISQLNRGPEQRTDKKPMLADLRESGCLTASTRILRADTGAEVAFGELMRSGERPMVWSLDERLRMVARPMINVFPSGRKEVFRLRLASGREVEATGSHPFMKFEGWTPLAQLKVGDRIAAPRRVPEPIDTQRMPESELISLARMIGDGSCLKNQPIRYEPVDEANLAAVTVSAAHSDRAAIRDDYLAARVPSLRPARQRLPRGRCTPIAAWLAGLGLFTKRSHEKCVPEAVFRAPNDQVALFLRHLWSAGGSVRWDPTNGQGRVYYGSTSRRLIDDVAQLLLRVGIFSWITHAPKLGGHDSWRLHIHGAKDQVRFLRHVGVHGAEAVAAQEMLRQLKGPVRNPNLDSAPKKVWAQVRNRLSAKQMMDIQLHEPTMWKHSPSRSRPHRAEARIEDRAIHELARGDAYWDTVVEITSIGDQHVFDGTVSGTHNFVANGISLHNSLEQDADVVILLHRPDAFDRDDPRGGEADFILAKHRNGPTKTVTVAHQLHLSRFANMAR

Genome polyprotein = Genome polyprotein (dengue virus type 2, UniProt P29990); assay: flavivirus cap methylation enzyme inhibition – biochemical, confirmation dose response, primary screen (AID 588689); format: functional
[15] = target: DNA damage-inducible transcript 3 protein (Mus musculus, UniProt P35639); format: functional, Cricetulus griseus

T4 sequence (P49327 whole entry): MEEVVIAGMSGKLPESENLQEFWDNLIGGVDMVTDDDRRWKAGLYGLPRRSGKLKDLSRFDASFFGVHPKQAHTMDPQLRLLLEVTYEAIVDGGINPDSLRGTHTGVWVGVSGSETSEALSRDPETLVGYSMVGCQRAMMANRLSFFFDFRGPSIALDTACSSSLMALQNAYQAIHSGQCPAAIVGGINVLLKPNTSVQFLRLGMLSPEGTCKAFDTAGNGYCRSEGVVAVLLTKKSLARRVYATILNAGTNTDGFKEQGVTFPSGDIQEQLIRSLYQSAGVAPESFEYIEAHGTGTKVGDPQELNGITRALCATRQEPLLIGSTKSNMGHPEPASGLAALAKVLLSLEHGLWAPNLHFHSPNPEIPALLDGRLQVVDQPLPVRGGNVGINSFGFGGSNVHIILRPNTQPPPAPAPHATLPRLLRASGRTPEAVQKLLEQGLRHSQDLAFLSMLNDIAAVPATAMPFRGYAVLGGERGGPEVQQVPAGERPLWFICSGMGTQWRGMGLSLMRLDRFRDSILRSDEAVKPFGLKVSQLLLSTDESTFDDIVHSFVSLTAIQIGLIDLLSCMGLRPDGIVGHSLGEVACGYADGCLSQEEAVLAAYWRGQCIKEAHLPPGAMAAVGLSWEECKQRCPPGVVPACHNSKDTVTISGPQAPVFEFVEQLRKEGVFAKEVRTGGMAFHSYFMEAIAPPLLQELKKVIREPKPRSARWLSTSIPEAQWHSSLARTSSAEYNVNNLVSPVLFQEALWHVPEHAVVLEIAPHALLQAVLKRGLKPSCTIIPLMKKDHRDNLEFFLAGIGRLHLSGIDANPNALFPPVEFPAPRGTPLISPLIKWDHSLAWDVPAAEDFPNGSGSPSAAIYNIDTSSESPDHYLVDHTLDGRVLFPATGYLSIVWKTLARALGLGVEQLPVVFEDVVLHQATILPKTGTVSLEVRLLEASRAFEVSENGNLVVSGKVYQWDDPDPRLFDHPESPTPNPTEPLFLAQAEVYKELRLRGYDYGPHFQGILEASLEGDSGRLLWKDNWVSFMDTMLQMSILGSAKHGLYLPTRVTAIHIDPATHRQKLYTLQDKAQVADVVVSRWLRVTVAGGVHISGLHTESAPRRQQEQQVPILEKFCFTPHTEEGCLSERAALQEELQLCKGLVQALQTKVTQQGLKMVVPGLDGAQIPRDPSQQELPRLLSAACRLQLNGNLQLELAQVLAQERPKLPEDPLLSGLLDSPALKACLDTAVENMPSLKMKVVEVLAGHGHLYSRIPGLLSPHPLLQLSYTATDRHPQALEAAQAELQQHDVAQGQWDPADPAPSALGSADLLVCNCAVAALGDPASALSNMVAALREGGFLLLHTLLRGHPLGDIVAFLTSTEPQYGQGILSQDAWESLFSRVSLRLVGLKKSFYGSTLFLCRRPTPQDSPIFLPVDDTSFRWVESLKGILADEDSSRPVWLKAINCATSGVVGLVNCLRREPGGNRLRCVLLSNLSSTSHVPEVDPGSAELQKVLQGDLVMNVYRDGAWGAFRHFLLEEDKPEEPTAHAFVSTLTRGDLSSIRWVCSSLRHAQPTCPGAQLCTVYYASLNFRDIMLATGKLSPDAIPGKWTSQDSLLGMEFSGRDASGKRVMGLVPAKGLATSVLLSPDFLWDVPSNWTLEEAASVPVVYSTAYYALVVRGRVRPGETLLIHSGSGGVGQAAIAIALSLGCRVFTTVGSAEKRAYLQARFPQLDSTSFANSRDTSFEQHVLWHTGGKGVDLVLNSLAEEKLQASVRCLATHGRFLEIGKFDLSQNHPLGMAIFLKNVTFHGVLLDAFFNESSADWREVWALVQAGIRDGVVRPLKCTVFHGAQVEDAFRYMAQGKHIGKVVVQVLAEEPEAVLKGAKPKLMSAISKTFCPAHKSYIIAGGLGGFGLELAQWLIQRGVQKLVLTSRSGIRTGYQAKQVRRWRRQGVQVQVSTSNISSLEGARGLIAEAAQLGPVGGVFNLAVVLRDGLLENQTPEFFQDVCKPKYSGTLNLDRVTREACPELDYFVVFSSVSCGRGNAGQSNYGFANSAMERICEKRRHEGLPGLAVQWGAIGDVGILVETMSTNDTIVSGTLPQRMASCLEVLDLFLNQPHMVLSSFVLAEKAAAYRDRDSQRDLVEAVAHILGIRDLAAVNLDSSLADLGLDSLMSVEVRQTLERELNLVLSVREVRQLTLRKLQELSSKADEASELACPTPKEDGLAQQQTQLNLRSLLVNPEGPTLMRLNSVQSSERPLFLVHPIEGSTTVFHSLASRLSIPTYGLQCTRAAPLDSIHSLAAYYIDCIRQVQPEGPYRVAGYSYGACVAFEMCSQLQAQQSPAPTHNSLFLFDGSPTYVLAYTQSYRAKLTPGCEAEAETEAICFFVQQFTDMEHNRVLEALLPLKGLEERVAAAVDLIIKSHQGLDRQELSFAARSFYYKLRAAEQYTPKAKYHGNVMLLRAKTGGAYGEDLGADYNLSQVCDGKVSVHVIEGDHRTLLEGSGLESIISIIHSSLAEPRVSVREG
Sequence of SWI/SNF-related matrix-associated actin-dependent regulator of chromatin subfamily A member 2 (P51531 whole entry): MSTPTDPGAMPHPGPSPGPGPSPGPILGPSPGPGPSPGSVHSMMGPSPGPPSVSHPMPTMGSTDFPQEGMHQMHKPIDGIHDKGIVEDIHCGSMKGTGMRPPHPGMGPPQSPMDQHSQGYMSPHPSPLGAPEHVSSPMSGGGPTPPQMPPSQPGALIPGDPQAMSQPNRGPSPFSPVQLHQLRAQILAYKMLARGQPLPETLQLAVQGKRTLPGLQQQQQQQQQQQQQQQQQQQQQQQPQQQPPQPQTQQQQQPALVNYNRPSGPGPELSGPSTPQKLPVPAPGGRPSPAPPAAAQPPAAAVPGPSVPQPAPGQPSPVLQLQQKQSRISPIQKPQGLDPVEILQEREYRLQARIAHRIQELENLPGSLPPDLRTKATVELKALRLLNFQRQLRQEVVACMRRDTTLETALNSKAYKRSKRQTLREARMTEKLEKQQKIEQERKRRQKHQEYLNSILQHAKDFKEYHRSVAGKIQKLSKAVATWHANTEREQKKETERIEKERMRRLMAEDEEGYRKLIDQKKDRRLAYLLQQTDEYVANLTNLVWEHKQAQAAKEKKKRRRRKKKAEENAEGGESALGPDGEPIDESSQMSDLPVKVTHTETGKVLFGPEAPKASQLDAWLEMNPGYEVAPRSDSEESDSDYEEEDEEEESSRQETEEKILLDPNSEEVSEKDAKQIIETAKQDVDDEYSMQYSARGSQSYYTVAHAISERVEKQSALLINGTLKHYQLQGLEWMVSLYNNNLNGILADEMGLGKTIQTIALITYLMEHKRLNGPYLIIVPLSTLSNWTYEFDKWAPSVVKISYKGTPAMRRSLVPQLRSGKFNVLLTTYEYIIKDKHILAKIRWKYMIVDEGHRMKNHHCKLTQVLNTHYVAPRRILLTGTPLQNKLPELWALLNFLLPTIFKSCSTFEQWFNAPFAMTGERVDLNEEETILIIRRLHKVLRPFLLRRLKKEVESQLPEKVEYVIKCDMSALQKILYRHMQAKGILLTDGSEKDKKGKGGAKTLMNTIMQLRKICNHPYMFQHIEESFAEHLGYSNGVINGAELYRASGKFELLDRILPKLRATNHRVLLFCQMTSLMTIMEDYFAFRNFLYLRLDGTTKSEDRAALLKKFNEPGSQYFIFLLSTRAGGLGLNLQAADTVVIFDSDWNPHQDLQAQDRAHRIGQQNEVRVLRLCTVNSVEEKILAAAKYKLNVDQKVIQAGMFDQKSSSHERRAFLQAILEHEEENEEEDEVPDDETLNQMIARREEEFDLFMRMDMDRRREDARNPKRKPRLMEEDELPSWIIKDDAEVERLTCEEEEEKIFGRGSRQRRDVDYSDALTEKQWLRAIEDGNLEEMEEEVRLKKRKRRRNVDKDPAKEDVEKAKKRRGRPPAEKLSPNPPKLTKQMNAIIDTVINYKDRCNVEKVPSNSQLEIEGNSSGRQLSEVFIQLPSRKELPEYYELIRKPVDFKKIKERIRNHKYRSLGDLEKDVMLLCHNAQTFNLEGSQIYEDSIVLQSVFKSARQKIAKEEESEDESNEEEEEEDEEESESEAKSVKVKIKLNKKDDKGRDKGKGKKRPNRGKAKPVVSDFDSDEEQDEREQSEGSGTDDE
Sequence of Genome polyprotein (P29990 2492-3391 limits assumed): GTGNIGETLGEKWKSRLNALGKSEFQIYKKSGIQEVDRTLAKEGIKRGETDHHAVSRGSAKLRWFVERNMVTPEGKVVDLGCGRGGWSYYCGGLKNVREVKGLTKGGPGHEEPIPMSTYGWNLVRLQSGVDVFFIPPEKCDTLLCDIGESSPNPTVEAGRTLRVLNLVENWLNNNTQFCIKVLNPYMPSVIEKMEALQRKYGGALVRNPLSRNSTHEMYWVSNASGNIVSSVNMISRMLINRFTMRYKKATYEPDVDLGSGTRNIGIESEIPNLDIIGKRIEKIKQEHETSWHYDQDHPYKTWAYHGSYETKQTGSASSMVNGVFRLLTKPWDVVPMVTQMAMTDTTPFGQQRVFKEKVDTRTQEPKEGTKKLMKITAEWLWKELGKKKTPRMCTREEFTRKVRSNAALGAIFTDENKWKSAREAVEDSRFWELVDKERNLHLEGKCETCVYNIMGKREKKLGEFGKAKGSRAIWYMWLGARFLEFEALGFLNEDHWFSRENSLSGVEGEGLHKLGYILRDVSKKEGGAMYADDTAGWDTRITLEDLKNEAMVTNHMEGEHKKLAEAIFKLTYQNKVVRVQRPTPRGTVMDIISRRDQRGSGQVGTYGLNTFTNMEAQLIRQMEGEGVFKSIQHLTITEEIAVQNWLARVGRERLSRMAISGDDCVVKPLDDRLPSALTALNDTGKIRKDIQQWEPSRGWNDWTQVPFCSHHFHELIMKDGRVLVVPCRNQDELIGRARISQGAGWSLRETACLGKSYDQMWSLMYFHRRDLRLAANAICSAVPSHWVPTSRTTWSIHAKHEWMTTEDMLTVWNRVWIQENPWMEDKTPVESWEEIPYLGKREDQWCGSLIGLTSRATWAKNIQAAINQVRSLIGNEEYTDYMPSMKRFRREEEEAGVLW

In the case of `CC(=O)Nc1nc(CC(C)C)cc(-c2ccco2)c1C#N`, the IC50 [1] is reported as 5.76 µM (active) and the IC50 [2] is reported as 4.18 µM (active).

With `CCOC(=O)c1c(NC(C)=O)sc2c(OCC(O)CNC(C)(C)C)c(Br)ccc12` (stereo not given) the AC50 [3] was 7.72 µM (active), the IC50 [4] was > 20 µM (inactive) and the EC50 [5] was > 91.2 µM (inactive). The CC50 [6] was 11.9 µM (active), the EC50 [7] was > 91.2 µM (inactive) and the AC50 (A-375) was 19.9 µM (active). For the same molecule, the IC50 (cells) was 10.2 µM (active), the AC50 [8] was 21 µM (active) and the CC50 [9] was 12.5 µM (active). For the same molecule, the CC50 [10] was 7.28 µM (active) and the AC50 [11] was 8.96 µM (active).

With `Cc1cc(C)c(S(=O)(=O)ON2C(=O)c3ccccc3C2=O)cc1C` the IC50 (Fatty acid synthase [12]) was 3.91 µM (active), the IC50 (Prothrombin) was 2.57 µM (active) and the IC50 (Fatty acid synthase [13]) was 0.744 µM (active). For the same molecule, the EC50 (Protein RecA) was 10.2 µM (active), the AC50 [14] was > 380 µM (inactive) and the IC50 (Genome polyprotein) was 76.2 µM (active). For the same molecule, the “Absolute IC50 (CHOP)” value [15] was 10 µM.
